# Measured values as given in ChEMBL document CHEMBL4842386, “Discovery of Reldesemtiv, a Fast Skeletal Muscle Troponin Activator for the Treatment of Impaired Muscle Function” (J Med Chem, 2021).
# Assays:
# [1] = Efflux ratio of apparent permeability in human Caco-2 cells; type: ADME, cell-based
# [2] = Drug distribution in Sprague-Dawley rat extensor digitorum longus to blood ratio at 100 mg/kg, po by HPLC analysis; type: ADME, organism-based
# [3] = Plasma protein binding in male rat assessed as unbound fraction; type: ADME, cell-free
# [4] = molecular target: hERG (KCNH2) (Homo sapiens, UniProt Q12809); test: Displacement of [3H]astemizole from human ERG expressed in HEK293 cells at 100 uM relative to control; type: cell-based; conditions: HEK293 cells that express hERG, probe [3H]astemizole
# [5] = Oral bioavailability in male Sprague-Dawley rat at 3 mg/kg administered as single dose measured up to 24 hrs by HPLC analysis; type: ADME, organism-based; conditions: in vivo
# [6] = Drug distribution in Sprague-Dawley rat Soleus muscle to blood ratio at 100 mg/kg, po by HPLC analysis; type: ADME, organism-based
# [7] = Clearance in male Sprague-Dawley rat at 3 mg/kg, po administered as single dose measured up to 24 hrs by HPLC analysis; type: ADME, organism-based; conditions: in vivo
# [8] = system: Psoas muscle; test: Activation of fast twitch skeletal muscle in rabbit psoas muscle myofibrils by measuring increase in myofibril ATPase activity at 25% calcium concentration; type: functional; conditions: Oryctolagus cuniculus
# [9] = Metabolic stability in human liver microsomes assessed as intrinsic clearance measured after 90 mins by HPLC/MS/MS analysis; type: ADME, Microsome; conditions: read-out: CLH
# [10] = system: Psoas muscle; test: Increase in psoas muscle force in rabbit skinned single fiber preparation at a calcium concentration that produces a force increase that is 25% of the maximum response in a control preparation by skinned fast skeletal muscle fiber assay; type: functional; conditions: Oryctolagus cuniculus
# [11] = Intrinsic clearance in male rat hepatocytes; type: ADME, cell-based, Hepatocyte; conditions: read-out: CLH
# [12] = Volume of distribution at steady state in male Sprague-Dawley rat at 3 mg/kg, po administered as single dose measured up to 24 hrs by HPLC analysis; type: ADME, organism-based; conditions: in vivo
# [13] = Drug distribution in Sprague-Dawley rat brain to blood ratio at 100 mg/kg, po by HPLC analysis; type: ADME, organism-based
# [14] = Drug distribution in Sprague-Dawley rat plasma to blood ratio at 100 mg/kg, po by HPLC analysis; type: ADME, organism-based; conditions: in vivo
# [15] = molecular target: T1, Nuclear receptor subfamily 1 group I member 2 (Homo sapiens, UniProt O75469); test: Transactivation of human PXR transfected in DPX2 cells assessed as CYP3A4 induction at 10 uM by luciferase reporter gene assay; type: ADME, cell-based; conditions: dpx2, 10 µM
# T1 sequence (O75469 whole entry): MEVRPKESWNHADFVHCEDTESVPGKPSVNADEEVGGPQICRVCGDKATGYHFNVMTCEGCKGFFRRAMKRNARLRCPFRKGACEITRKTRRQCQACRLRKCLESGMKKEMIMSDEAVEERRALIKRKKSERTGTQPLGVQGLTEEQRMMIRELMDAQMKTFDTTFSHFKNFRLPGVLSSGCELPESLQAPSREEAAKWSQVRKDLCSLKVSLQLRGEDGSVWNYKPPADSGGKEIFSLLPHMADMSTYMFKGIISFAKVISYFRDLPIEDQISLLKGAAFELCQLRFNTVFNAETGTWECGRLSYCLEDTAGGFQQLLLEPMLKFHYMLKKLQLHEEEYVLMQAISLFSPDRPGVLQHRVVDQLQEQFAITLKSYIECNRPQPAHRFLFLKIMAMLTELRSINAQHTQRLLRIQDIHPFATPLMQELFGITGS
# [16] = Metabolic stability in male rat liver microsomes assessed as intrinsic clearance measured after 90 mins by HPLC/MS/MS analysis; type: ADME, Microsome; conditions: read-out: CLH
# [17] = Plasma protein binding in dog assessed as unbound fraction; type: ADME, cell-free, Canis lupus familiaris
# [18] = Clearance in cynomolgus monkey at 3 mg/kg, po administered as single dose measured up to 24 hrs by HPLC analysis; type: ADME, organism-based, Macaca fascicularis; conditions: in vivo
# [19] = Oral bioavailability in mouse at 3 mg/kg administered as single dose measured up to 24 hrs by HPLC analysis; type: ADME, organism-based; conditions: in vivo
# [20] = Metabolic stability in monkey liver microsomes assessed as intrinsic clearance measured after 90 mins by HPLC/MS/MS analysis; type: ADME, Macaca mulatta, Microsome; conditions: rhesus monkey, read-out: CLH
# [21] = Plasma protein binding in female rat assessed as unbound fraction; type: ADME, cell-free
# [22] = Intrinsic clearance in human hepatocytes; type: ADME, cell-based, Hepatocyte; conditions: read-out: CLH
# [23] = Clearance in Beagle dog at 3 mg/kg, po administered as single dose measured up to 24 hrs by HPLC analysis; type: ADME, organism-based, Canis lupus familiaris; conditions: in vivo
# [24] = Volume of distribution at steady state in mouse at 3 mg/kg, po administered as single dose measured up to 24 hrs by HPLC analysis; type: ADME, organism-based; conditions: in vivo
# [25] = Oral bioavailability in cynomolgus monkey at 3 mg/kg administered as single dose measured up to 24 hrs by HPLC analysis; type: ADME, organism-based, Macaca fascicularis; conditions: in vivo
# [26] = Volume of distribution at steady state in Beagle dog at 3 mg/kg, po administered as single dose measured up to 24 hrs by HPLC analysis; type: ADME, organism-based, Canis lupus familiaris; conditions: in vivo
# [27] = Plasma protein binding in human assessed as unbound fraction; type: ADME, cell-free
# [28] = Plasma protein binding in monkey assessed as unbound fraction; type: ADME, cell-free, Macaca mulatta; conditions: rhesus monkey
# [29] = Clearance in mouse at 3 mg/kg, po administered as single dose measured up to 24 hrs by HPLC analysis; type: ADME, organism-based; conditions: in vivo
# [30] = Oral bioavailability in Beagle dog at 3 mg/kg administered as single dose measured up to 24 hrs by HPLC analysis; type: ADME, organism-based, Canis lupus familiaris; conditions: in vivo
# [31] = Metabolic stability in dog liver microsomes assessed as intrinsic clearance measured after 90 mins by HPLC/MS/MS analysis; type: ADME, Canis lupus familiaris, Microsome; conditions: read-out: CLH
# [32] = system: Extensor digitorum longus; test: Increase in muscle tension in rat extensor digitorum longus muscle rat model assessed as free plasma concentration to increase muscle tension at subtetanic nerve stimulation rate of 30 Hz; type: functional, tissue-based
# [33] = Volume of distribution at steady state in female Sprague-Dawley rat at 3 mg/kg, po administered as single dose measured up to 24 hrs by HPLC analysis; type: ADME, organism-based; conditions: in vivo
# [34] = Intrinsic clearance in monkey hepatocytes; type: ADME, cell-based, Macaca mulatta, Hepatocyte; conditions: rhesus monkey, read-out: CLH
# [35] = Metabolic stability in female rat liver microsomes assessed as intrinsic clearance measured after 90 mins by HPLC/MS/MS analysis; type: ADME, Microsome; conditions: read-out: CLH
# [36] = Volume of distribution at steady state in cynomolgus monkey at 3 mg/kg, po administered as single dose measured up to 24 hrs by HPLC analysis; type: ADME, organism-based, Macaca fascicularis; conditions: in vivo
# [37] = Intrinsic clearance in dog hepatocytes; type: ADME, cell-based, Canis lupus familiaris, Hepatocyte; conditions: read-out: CLH
# [38] = Intrinsic clearance in female rat hepatocytes; type: ADME, cell-based, Hepatocyte; conditions: read-out: CLH
# [39] = Clearance in female Sprague-Dawley rat at 3 mg/kg, po administered as single dose measured up to 24 hrs by HPLC analysis; type: ADME, organism-based; conditions: in vivo
# [40] = Oral bioavailability in female Sprague-Dawley rat at 3 mg/kg administered as single dose measured up to 24 hrs by HPLC analysis; type: ADME, organism-based; conditions: in vivo
# Sequence of hERG (KCNH2) (Q12809 whole entry): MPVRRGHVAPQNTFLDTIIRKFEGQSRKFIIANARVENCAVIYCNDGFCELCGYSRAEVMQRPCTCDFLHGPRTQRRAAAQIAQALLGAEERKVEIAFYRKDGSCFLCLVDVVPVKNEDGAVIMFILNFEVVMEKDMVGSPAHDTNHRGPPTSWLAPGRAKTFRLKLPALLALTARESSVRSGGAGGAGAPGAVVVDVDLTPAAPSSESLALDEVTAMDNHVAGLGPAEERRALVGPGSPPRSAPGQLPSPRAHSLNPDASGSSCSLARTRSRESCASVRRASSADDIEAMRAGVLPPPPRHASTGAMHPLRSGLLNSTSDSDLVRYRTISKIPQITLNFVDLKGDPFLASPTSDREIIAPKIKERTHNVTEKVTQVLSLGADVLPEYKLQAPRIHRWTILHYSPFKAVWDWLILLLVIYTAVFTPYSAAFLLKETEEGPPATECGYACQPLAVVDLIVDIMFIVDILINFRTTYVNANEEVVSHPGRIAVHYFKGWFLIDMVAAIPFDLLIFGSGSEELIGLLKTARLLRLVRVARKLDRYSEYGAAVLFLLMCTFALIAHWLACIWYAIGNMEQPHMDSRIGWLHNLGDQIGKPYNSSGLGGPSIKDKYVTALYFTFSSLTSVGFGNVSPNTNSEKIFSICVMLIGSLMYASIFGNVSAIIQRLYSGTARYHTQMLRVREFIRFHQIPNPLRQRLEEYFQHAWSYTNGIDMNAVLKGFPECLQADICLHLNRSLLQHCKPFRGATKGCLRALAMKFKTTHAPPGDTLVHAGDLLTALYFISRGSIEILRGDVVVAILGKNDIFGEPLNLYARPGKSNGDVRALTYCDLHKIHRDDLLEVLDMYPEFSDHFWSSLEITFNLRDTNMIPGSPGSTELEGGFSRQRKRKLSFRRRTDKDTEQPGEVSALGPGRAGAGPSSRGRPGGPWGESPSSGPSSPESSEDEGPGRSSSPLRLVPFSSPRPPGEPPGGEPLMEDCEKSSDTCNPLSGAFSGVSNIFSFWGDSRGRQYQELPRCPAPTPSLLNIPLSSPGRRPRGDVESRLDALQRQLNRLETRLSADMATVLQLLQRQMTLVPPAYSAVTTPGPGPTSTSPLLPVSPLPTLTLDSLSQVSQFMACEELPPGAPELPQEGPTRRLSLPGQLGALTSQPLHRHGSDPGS
smiles,measurement,setting,value
NC(=O)c1cccc(-c2cnc(NC[C@]3(c4ncccc4F)C[C@H](F)C3)nc2)c1,efflux ratio,[1],1.8
same,Kp,[2],1.2
same,fraction unbound,[3],0.15
same,inhibition at 100 µM,[4],46%
same,bioavailability,[5],21%
same,Kp,[6],1.16
same,CL/F,[7],59 mL/min/kg
same,EC40,[8],300 nM
same,CLint scaled,[9],< 14 mL/min/kg
same,EC30,[10],800 nM
same,CLint scaled,[11],38 mL/min/kg
same,Vdss,[12],1.7 L/kg
same,Kp,[13],0.15
same,Ratio,[14],1.85
same,Activity,[15],68%
same,CLint scaled,[16],38 mL/min/kg
NC(=O)c1ccn(-c2cnc(NC[C@]3(c4ncccc4F)C[C@H](F)C3)nc2)c1 [RELDESEMTIV],fraction unbound,[17],0.5
same,CL/F,[18],13 mL/min/kg
same,efflux ratio,[1],3.1
same,Kp,[2],0.85
same,fraction unbound,[3],0.5
same,inhibition at 100 µM,[4],33%
same,bioavailability,[19],47%
same,CLint scaled,[20],18 mL/min/kg
same,fraction unbound,[21],0.5
same,CLint scaled,[22],< 14 mL/min/kg
same,CL/F,[23],22 mL/min/kg
same,Vdss,[24],3.3 L/kg
same,bioavailability,[25],26%
same,Kp,[6],0.77
same,Vdss,[26],1.9 L/kg
same,fraction unbound,[27],0.49
same,CL/F,[7],74 mL/min/kg
same,fraction unbound,[28],0.49
same,CL/F,[29],86 mL/min/kg
same,bioavailability,[30],25%
same,CLint scaled,[31],11 mL/min/kg
same,EC40,[8],600 nM
same,CLint scaled,[9],< 14 mL/min/kg
same,EC30,[10],800 nM
same,EC50,[32],38000 nM
same,CLint scaled,[11],56 mL/min/kg
same,Vdss,[33],1.3 L/kg
same,CLint scaled,[34],23 mL/min/kg
same,CLint scaled,[35],15 mL/min/kg
same,Vdss,[12],2.6 L/kg
same,Vdss,[36],1.3 L/kg
same,Kp,[13],0.063
same,CLint scaled,[37],37 mL/min/kg
same,CLint scaled,[38],217 mL/min/kg
same,CL/F,[39],24 mL/min/kg
same,Ratio,[14],1
same,Activity,[15],18%
same,CLint scaled,[16],15 mL/min/kg
same,bioavailability,[40],45%
